The text below walks through data of patent publication US4837204A, “Functionalized peptidyl aminodiols and -triols” (Abbott Laboratories, priority 1988, dated 1989).

This assay has as its target T1, human renal renin (Homo sapiens, UniProt P00797).
T1 construct: human renal renin, free from acid proteolytic activity; from tissue
T1 sequence (P00797 67-406): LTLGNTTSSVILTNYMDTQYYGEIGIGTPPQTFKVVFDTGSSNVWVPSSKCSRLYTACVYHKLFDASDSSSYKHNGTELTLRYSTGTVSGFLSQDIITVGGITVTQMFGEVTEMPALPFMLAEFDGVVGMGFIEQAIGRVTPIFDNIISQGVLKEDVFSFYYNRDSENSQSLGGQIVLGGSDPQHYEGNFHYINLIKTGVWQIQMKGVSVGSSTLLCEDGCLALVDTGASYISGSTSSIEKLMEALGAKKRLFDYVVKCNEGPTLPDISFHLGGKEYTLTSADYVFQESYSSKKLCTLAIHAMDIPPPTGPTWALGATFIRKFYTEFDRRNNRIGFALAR
As to the kind of experiment: in vitro inhibition of human renal renin (angiotensin I formed measured by radioimmunoassay). It counts as biochemical. Conditions: human renal renin with renin substrate (human angiotensinogen), 37° C., pH 6.0.
For `CCOC(=O)N[C@@H](Cc1ccccc1)C(=O)N[C@@H](CC(C)C)C(=O)N[C@@H](CC1CCCCC1)C(O)C(O)C(O)C(C)C` (single isomer, unassigned) [Example 36A], it took 30 nM to reach half-maximal inhibition (IC50).

`CCOC(=O)N[C@@H](Cc1ccccc1)C(=O)N[C@@H](CC(C)C)C(=O)N[C@@H](CC1CCCCC1)C(O)C(O)C(O)C(C)C` (single isomer, unassigned) [Example 36B] had an IC50 of 10 nM. The figure for `CC(C)CCC(=O)NC[C@H](O)[C@H](O)[C@H](CC1CCCCC1)NC(=O)[C@H](Cc1c[nH]cn1)NC(=O)[C@H](Cc1ccccc1)NC(=O)OC(C)(C)C` [Example 14, Boc-Phe-His Amide of (2S,3R,4S)-1-(3-Methylbutylcarbonylamino)-2,3-dihydroxy-4-amino-5-cyclohexylpentane] is 4 nM; for `CC(C)CCC(=O)NC[C@H](O)[C@H](O)[C@H](CC1CCCCC1)NC(=O)C(Cc1cc[nH]n1)NC(=O)[C@H](Cc1ccccc1)NC(=O)OC(C)(C)C` (stereo partly drawn) [Example 15, Boc-Phe-d,l-3-pyrazolylalanine Amide of (2S,3R,4S)-1-(3-Methylbutylcarbonylamino)-2,3-dihydroxy-4-amino-5-cyclohexylpentane] it is 6 nM. The figure for `CC(C)CS(=O)(=O)NC[C@H](O)[C@H](O)[C@H](CC1CCCCC1)NC(=O)[C@H](Cc1c[nH]cn1)NC(=O)[C@H](Cc1ccccc1)NC(=O)OC(C)(C)C` [Example 16, Boc-Phe-His Amide of (2S,3R,4S)-1-(Isobutylsulfonylamino)-2,3-dihydroxy-4-amino-5-cyclohexylpentane] is 10 nM; for `CC(C)(C)OC(=O)N[C@@H](Cc1ccccc1)C(=O)N[C@@H](Cc1c[nH]cn1)C(=O)N[C@@H](CC1CCCCC1)[C@@H](O)[C@@H](O)CN=[N+]=[N-]` [Example 17, Boc-Phe-His Amide of (2S,3R,4S)-1-Azido-2,3-dihydroxy-4-amino-5-cyclohexlpentane] it is 0.4 nM; for `COc1ccc(C[C@H](NC(=O)OC(C)(C)C)C(=O)N[C@@H](Cc2c[nH]cn2)C(=O)N[C@@H](CC2CCCCC2)[C@@H](O)[C@@H](O)CN=[N+]=[N-])cc1` [Example 19, Boc-(O-methyl)Tyr-His Amide of (2S,3R,4S)-1-Azido-2,3-dihydroxy-4-amino-5-cyclohexylpentane] it is 0.65 nM. The figure for `C[C@H](NC(=O)[C@H](Cc1ccccc1)NC(=O)OC(C)(C)C)C(=O)N[C@@H](CC1CCCCC1)[C@@H](O)[C@@H](O)CN=[N+]=[N-]` [Example 20, Boc-Phe-Ala-OH Amide of (2S,3R,4S)-1-Azido-2,3-dihydroxy-4-amino-5-cyclohexylpentane] is 10 nM. `C[C@H](NC(=O)[C@H](Cc1ccccc1)NC(=O)OC(C)(C)C)C(=O)N[C@@H](CC1CCCCC1)[C@@H](O)[C@@H](O)CN` [Example 31, Boc-Phe-Ala Amide (4-amino) of (2S,3R,4S)-1,4-Diamino-2,3-dihydroxy-5-cyclohexylpentane] showed a half-inhibitory concentration (IC50) of 55 nM. For the molecule `CCOC(=O)N[C@@H](CC(C)C)C(=O)N[C@@H](CC(C)C)C(=O)N[C@@H](CC1CCCCC1)C(O)C(O)CO` (stereo partly drawn) [Example 32, Ethoxycarbonyl-Leu-Leu Amide of (2RS,3RS,4S)-Amino-5-cyclohexyl-1,2,3-trihydroxypentane], the IC50 was found to be 50 nM. With `COc1ccc(C[C@H](NC(=O)C(C)C)C(=O)N[C@@H](Cc2c[nH]cn2)C(=O)N[C@@H](CC2CCCCC2)[C@@H](O)[C@@H](O)CN=[N+]=[N-])cc1` [Example 47, Isobutyryl (O-methyl)Tyr-His Amide of (2S,3R,4S)-1-Azido-2,3-dihydroxy-4-amino-5-cyclohexylpentane], the IC50 turned out to be 2 nM.

The molecule `CC(C)C(=O)N[C@H](C(=O)N[C@@H](Cc1c[nH]cn1)C(=O)N[C@@H](CC1CCCCC1)[C@@H](O)[C@@H](O)CN=[N+]=[N-])[C@@H](C)OCc1ccccc1` [Example 52, Isobutyryl (O-benzyl)Thr-His Amide of (2S,3R,4S)-1-Azido-2,3-dihydroxy-4-amino-5-cyclohexylpentane] gave an IC50 of 4 nM. `COc1ccc(C[C@H](NC(=O)N(C)C)C(=O)N[C@@H](Cc2c[nH]cn2)C(=O)N[C@@H](CC2CCCCC2)[C@@H](O)[C@@H](O)CN=[N+]=[N-])cc1` [Example 69, Dimethylaminocarbonyl (O-methyl)Tyr-His Amide of (2S,3R,4S)-1-Azido-2,3-dihydroxy-4-amino-5-cyclohexylpentane]: the IC50 worked out at 10 nM. The figure for `CC(C)(CC(=O)N[C@@H](Cc1ccccc1)C(=O)N[C@@H](Cc1c[nH]cn1)C(=O)N[C@@H](CC1CCCCC1)[C@@H](O)[C@@H](O)CN=[N+]=[N-])CC(=O)OC(C)(C)C` [Example 70, (4-t-Butyloxycarbonyl-3,3-dimethyl)butanoyl-Phe-His Amide of (2S,3R,4S)-1-Azido-2,3-dihydroxy-4-amino-5-cyclohexylpentane] is 1 nM; for `COc1ccc(C[C@H](NC(=O)N2CCOCC2)C(=O)N[C@@H](Cc2c[nH]cn2)C(=O)N[C@@H](CC2CCCCC2)[C@@H](O)[C@@H](O)CN=[N+]=[N-])cc1` [Example 72, Morpholinocarbonyl (O-methyl)Tyr-His Amide of (2S,3R,4S)-1-Azido-2,3-dihydroxy-4-amino-5-cyclohexylpentane] it is 4 nM.

Broadly, the IC50 is the concentration that inhibits the measured activity by half. Low readings indicate greater potency in that assay, high ones weaker potency in that assay.
